Broadly, the IC50 is the concentration that inhibits the measured activity by half. As a reminder, the inhibition is the relative decrease from the control value, in per cent.

The target of the first assay is T1, human TREK-1 (Homo sapiens, UniProt O95069).
T1 construct: expressed in transfected cells
T1 sequence (O95069 1-426): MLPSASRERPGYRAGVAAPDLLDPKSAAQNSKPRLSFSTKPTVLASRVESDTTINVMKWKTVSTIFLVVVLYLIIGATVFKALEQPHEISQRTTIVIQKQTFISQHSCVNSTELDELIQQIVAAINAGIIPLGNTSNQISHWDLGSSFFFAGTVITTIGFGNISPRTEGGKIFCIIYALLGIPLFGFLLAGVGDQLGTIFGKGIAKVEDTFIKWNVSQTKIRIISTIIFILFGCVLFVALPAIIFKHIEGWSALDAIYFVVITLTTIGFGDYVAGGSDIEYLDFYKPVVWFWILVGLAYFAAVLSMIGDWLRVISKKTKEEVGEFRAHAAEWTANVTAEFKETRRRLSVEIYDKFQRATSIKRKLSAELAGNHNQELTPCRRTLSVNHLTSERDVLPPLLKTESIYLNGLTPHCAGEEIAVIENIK
The assay is described as follows: TREK-1 Thallium (Tl+) flux assay, Method 1. Format: cell-based. The settings on record: TREK-1 Thallium (Tl+) flux assay, Method 1. The method, boiled down:
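CHO-K1 cells stably expressing human TREK-1, loaded with Thallos dye, received compound or 0.3% DMSO vehicle for 10 min before thallium stimulus buffer. ΔRatio is fluorescence at 25 s after thallium addition over mean pre-addition fluorescence; % inhibition calculated from it.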
`CC(=O)N1CCC(n2ncc(Cl)c2C(=O)Nc2ncc(-c3ccc(OC(F)F)cc3)cc2C)CC1` [Compound 421, 1-(1-acetylpiperidin-4-yl)-4-chloro-N-(5-(4-(difluoromethoxy)phenyl)-3-methylpyridin-2-yl)-1H-pyrazole-5-carboxamide] gave an IC50 of 4.4 µM.

Staying with this assay, now noted: TREK-1 Thallium (Tl+) flux assay; no *^12 (Method 2) mark on these rows.
`Cc1cc(C#Cc2ccc(F)cc2)cnc1NC(=O)c1c(Cl)cnn1C1CCN(C(=O)C2COCCO2)C1` (stereo not drawn) [Compound 230, 1-(1-(1,4-dioxane-2-carbonyl)pyrrolidin-3-yl)-4-chloro-N-(5-((4-fluorophenyl)ethynyl)-3-methylpyridin-2-yl)-1H-pyrazole-5-carboxamide] gave an IC50 of 0.35 µM.
Compound `Cc1cc(C#Cc2ccccc2)cnc1NC(=O)c1c(Cl)cnn1[C@H]1C[C@@H]2CN(C(=O)C(C)C)C[C@@H]2C1` [Compound 317, 4-chloro-N-[3-methyl-5-(phenylethynyl)pyridin-2-yl]-1-[(3aR,5s,6aS)-2-(2-methylpropanoyl)octahydrocyclopenta [c]pyrrol-5-yl]-1H-pyrazole-5-carboxamide] had an IC50 of 0.61 µM.
Same read-out and setting: next, `Cc1cc(C#Cc2ccccc2)cc(F)c1NC(=O)c1c(Cl)cnn1C[C@@H]1CCOC1` [Compound 200, (S)-4-chloro-N-(2-fluoro-6-methyl-4-(phenylethynyl)phenyl)-1-((tetrahydrofuran-3-yl)methyl)-1H-pyrazole-5-carboxamide]: 0.31 µM; `Cc1cc(C#Cc2ccc(F)cc2)cnc1NC(=O)c1c(Cl)cnn1C1CC2(CCN(C(=O)C(C)C)C2)C1` (stereo not drawn) [Compound 332, 4-chloro-N-{5-[(4-fluorophenyl)ethynyl]-3-methylpyridin-2-yl}-1-[6-(2-methylpropanoyl)-6-azaspiro[3.4]octan-2-yl]-1H-pyrazole-5-carboxamide]: 0.66 µM.
On the same count and under the same terms, next, `CC(=O)N1CCN(CCn2ncc(Cl)c2C(=O)Nc2ncc(C#Cc3ccccc3)cc2C)CC1` [Compound 303, 1-(2-(4-acetylpiperazin-1-yl)ethyl)-4-chloro-N-(3-methyl-5-(phenylethynyl)pyridin-2-yl)-1H-pyrazole-5-carboxamide]: 0.56 µM.
On the same count and under the same terms, next, `Cc1cc(C#Cc2ccc(F)cc2)cnc1NC(=O)c1c(Cl)cnn1[C@H]1C[C@H](NC(=O)C(C)C)C1` [Compound 209, 4-chloro-N-(5-((4-fluorophenyl)ethynyl)-3-methylpyridin-2-yl)-1-(trans-3-isobutyramidocyclobutyl)-1H-pyrazole-5-carboxamide]: 0.31 µM; `Cc1cc(C#Cc2ccccc2)cnc1NC(=O)c1c(Cl)cnn1C1CCCC(NC(=O)OC(C)(C)C)C1` (stereo not drawn) [Compound 358, tert-butyl (3-(4-chloro-5-((3-methyl-5-(phenylethynyl)pyridin-2-yl)carbamoyl)-1H-pyrazol-1-yl)cyclohexyl)carbamate]: 0.88 µM.
Take `Cc1cc(C#Cc2ccc(F)cc2)cnc1NC(=O)c1c(Cl)cnn1CC1CCCN(C(=O)C(C)C)C1` (stereo not drawn) [Compound 272, 4-chloro-N-(5-((4-fluorophenyl)ethynyl)-3-methylpyridin-2-yl)-1-((1-isobutyrylpiperidin-3-yl)methyl)-1H-pyrazole-5-carboxamide]: half-maximal inhibition (IC50) was put at 0.46 µM.
The same measure, in the same setting: as for `CC(=O)N1CC2CC(C1)C2Cn1ncc(Cl)c1C(=O)Nc1ncc(C#Cc2ccccc2)cc1C` (stereo not drawn) [Compound 370, 1-((3-acetyl-3-azabicyclo[3.1.1]heptan-6-yl)methyl)-4-chloro-N-(3-methyl-5-(phenylethynyl)pyridin-2-yl)-1H-pyrazole-5-carboxamide], the figure is 0.98 µM.

The assay is the same for the next values; noted with them: TREK-1 Thallium (Tl+) flux assay; values without footnote *12 are Method 1.
As to `Cc1cc(C#Cc2ccccc2)cnc1NC(=O)c1c(Cl)cnn1-c1ccc2c(c1)OCCO2` [Compound 21, 4-chloro-1-(2,3-dihydrobenzo[b][1,4]dioxin-6-yl)-N-(3-methyl-5-(phenylethynyl)pyridin-2-yl)-1H-pyrazole-5-carboxamide], the midpoint of inhibition, the IC50, lay at 0.07 µM.
On the same count and under the same terms, as for `Cc1cc(C#Cc2ccccc2)cnc1NC(=O)c1c(Cl)cnn1C1CCN(S(C)(=O)=O)CC1` [Compound 163, 4-chloro-N-(3-methyl-5-(phenylethynyl)pyridin-2-yl)-1-(1-(methylsulfonyl)piperidin-4-yl)-1H-pyrazole-5-carboxamide], the figure is 0.26 µM; as for `Cc1cc(C#Cc2ccccc2)cnc1NC(=O)c1c(Cl)cnn1C[C@H]1CCOC1` [Compound 147, (R)-4-chloro-N-(3-methyl-5-(phenylethynyl)pyridin-2-yl)-1-((tetrahydrofuran-3-yl)methyl)-1H-pyrazole-5-carboxamide], 0.24 µM; as for `CC(=O)N1CCC(Cn2ncc(Cl)c2C(=O)Nc2ncc(C#Cc3ccccc3)cc2C)CC1` [Compound 85, 1-((1-acetylpiperidin-4-yl)methyl)-4-chloro-N-(3-methyl-5-(phenylethynyl)pyridin-2-yl)-1H-pyrazole-5-carboxamide], 0.17 µM.
The same measure, in the same setting: as for `O=C(Nc1ncc(C#Cc2ccccc2)cc1F)c1c(Cl)cnn1C1CCOCC1` [Compound 51, 4-chloro-N-(3-fluoro-5-(phenylethynyl)pyridin-2-yl)-1-(tetrahydro-2H-pyran-4-yl)-1H-pyrazole-5-carboxamide], the figure is 0.14 µM; as for `CC(=O)N1CCC(CCn2ncc(Cl)c2C(=O)Nc2ncc(C#Cc3ccccc3)cc2F)CC1` [Compound 102, 1-(2-(1-acetylpiperidin-4-yl)ethyl)-4-chloro-N-(3-fluoro-5-(phenylethynyl)pyridin-2-yl)-1H-pyrazole-5-carboxamide], 0.19 µM.
Take `CC(=O)N1CCC(n2ncc(Cl)c2C(=O)Nc2ncc(C#Cc3ccccc3F)cc2C)C(F)C1` (stereo in doubt) [Compound 159, 1-((3R,4R)-1-acetyl-3-fluoropiperidin-4-yl)-4-chloro-N-(5-((2-fluorophenyl)ethynyl)-3-methylpyridin-2-yl)-1H-pyrazole-5-carboxamide]: it took 0.25 µM to reach half-maximal inhibition (IC50).
In turn, `CCC(=O)N1CC(n2ncc(Cl)c2C(=O)Nc2ncc(C#Cc3ccccc3)cc2C)C1` [Compound 137, 4-chloro-N-(3-methyl-5-(phenylethynyl)pyridin-2-yl)-1-(1-propionylazetidin-3-yl)-1H-pyrazole-5-carboxamide] had an IC50 of 0.22 µM.
The same measure, in the same setting: as for `CC(=O)N[C@H]1CC[C@H](n2ncc(Cl)c2C(=O)Nc2ncc(C#Cc3ccccc3)cc2C)CC1` [Compound 47, 1-(trans-4-acetamidocyclohexyl)-4-chloro-N-(3-methyl-5-(phenylethynyl)pyridin-2-yl)-1H-pyrazole-5-carboxamide], the figure is 0.13 µM; as for `O=C(Nc1ncc(C#Cc2ccccc2)cc1F)c1c(Cl)cnn1C[C@H]1CCOC1` [Compound 60, (R)-4-chloro-N-(3-fluoro-5-(phenylethynyl)pyridin-2-yl)-1-((tetrahydrofuran-3-yl)methyl)-1H-pyrazole-5-carboxamide], 0.15 µM; as for `Cc1cc(C#Cc2ccccc2)cc(F)c1NC(=O)c1c(Cl)cnn1C1CCOCC1` [Compound 180, 4-chloro-N-(2-fluoro-6-methyl-4-(phenylethynyl)phenyl)-1-(tetrahydro-2H-pyran-4-yl)-1H-pyrazole-5-carboxamide], 0.28 µM.
Same read-out and setting: next, `CC(=O)N1CCC(n2ncc(Cl)c2C(=O)Nc2ncc(C#Cc3ccccc3)cc2F)C1` (stereo not drawn) [Compound 121, 1-(1-acetylpyrrolidin-3-yl)-4-chloro-N-(3-fluoro-5-(phenylethynyl)pyridin-2-yl)-1H-pyrazole-5-carboxamide]: 0.21 µM; `O=C(Nc1ncc(C#Cc2ccccc2)cc1F)c1c(Cl)cnn1CC1CCN(C(=O)C2CC2)C1` (stereo not drawn) [Compound 43, 4-chloro-1-((1-(cyclopropanecarbonyl)pyrrolidin-3-yl)methyl)-N-(3-fluoro-5-(phenylethynyl)pyridin-2-yl)-1H-pyrazole-5-carboxamide]: 0.13 µM.
On to `Cc1cc(C#Cc2ccccc2)cnc1NC(=O)c1c(Cl)cnn1C1CCN(C(=O)CC(F)(F)F)CC1` [Compound 171, 4-chloro-N-(3-methyl-5-(phenylethynyl)pyridin-2-yl)-1-(1-(3,3,3-trifluoropropanoyl)piperidin-4-yl)-1H-pyrazole-5-carboxamide], for which the IC50 was found to be 0.27 µM.

The assay is the same for the next values; noted with them: read-out: Tl^+ Assay % inhibition at 30 uM (Minus value indicates activation of TREK-1); at 30 uM; CHO-K1 cells stably expressing human TREK-1; minus = activation.
For `Cc1cc(C#Cc2ccccc2F)cnc1NC(=O)c1nn(CCC2CCN(C(=O)C3CC3)CC2)cc1Cl` [Compound 441, 4-chloro-1-(2-(1-(cyclopropanecarbonyl)piperidin-4-yl)ethyl)-N-(5-((2-fluorophenyl)ethynyl)-3-methylpyridin-2-yl)-1H-pyrazole-3-carboxamide], the inhibition at 30 µM is -123%.
The same measure, in the same setting: next, `Cn1ncc2c1CC(n1cc(Cl)c(C(=O)Nc3ncc(C#Cc4ccccc4)cc3F)n1)CC2=O` (stereo not drawn) [Compound 453, 4-chloro-N-(3-fluoro-5-(phenylethynyl)pyridin-2-yl)-1-(1-methyl-4-oxo-4,5,6,7-tetrahydro-1H-indazol-6-yl)-1H-pyrazole-3-carboxamide]: -56%.
Still for that read-out and setting: next, `Cc1cc(C#Cc2ccccc2)cnc1NC(=O)c1nn(CC2CCOCC2)cc1Cl` [Compound 444, 4-chloro-N-(3-methyl-5-(phenylethynyl)pyridin-2-yl)-1-((tetrahydro-2H-pyran-4-yl)methyl)-1H-pyrazole-3-carboxamide]: -116%.

The values above are taken from US20240182445A1 (ONO PHARMACEUTICAL CO., LTD., priority 2019, published 2024).
